Measured values: patent US9499550B2 (BRISTOL-MYERS SQUIBB COMPANY, priority 2012, dated 2016)
Where two headings read alike, the source gives them in different places.

Columns and labels:
[1] = system: HCV genotype 1a (H77 strain) replicon in HUH-7 cells; assay: HCV replicon luciferase reporter assay, genotype 1a; assay type: cell-based; details: Hepatitis C virus, Huh-7, 72 h, 3 days incubation
Method in brief: (§1)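 Replicon inhibition for both genotypes was measured as Renilla luciferase signal (EnduRen, 7.5 μM final, 2 h) after 3-day, 37° C exposure of replicon-bearing HUH-7 cells in 4% FCS DMEM, 0.5% DMSO. The 1b construct carries S1179I; the 1a H77 construct carries P1496L and S2204I. Twenty-point, 3-fold dilutions were fitted four-parametrically for EC50, and CC50 was taken from multiplexed Cell Titer-Blue.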

[2] = system: HCV genotype 1b (Con1) replicon in HUH-7 cells; assay: HCV replicon luciferase reporter assay, genotype 1b; assay type: cell-based; details: Hepatitis C virus, Huh-7, 72 h, 3 days incubation
Method in brief: as §1

[3] = HCV genotype 1a replicon luciferase, read-out: LE_1a (EC50, range)
[4] = HCV genotype 1b replicon luciferase, read-out: LE_1b (EC50, range)
[5] = HCV genotype 1a replicon luciferase assay, range class, read-out: LE_1a (EC50, range)
[6] = HCV genotype 1b replicon luciferase assay, range class, read-out: LE_1b (EC50, range)
[7] = GETYPE1A, HCV genotype 1a replicon luciferase, read-out: LE_1a (EC50, range)
[8] = GETYPE1B, HCV genotype 1b replicon luciferase, read-out: LE_1b (EC50, range)

Row | SMILES | EC50 [1, 3] | EC50 [2, 4] | other results
1 | COc1cnc(O[C@@H]2C[C@H]3C(=O)N[C@]4(C(=O)NS(=O)(=O)C5(CF)CC5)C[C@H]4CCCC[C@H](C)C[C@@H](C)[C@H](NC(=O)OC(C)(C)C(F)(F)F)C(=O)N3C2)c2ccccc12 [Compound 5116, 1,1,1-trifluoro-2-methylpropan-2-yl((2R,6S,7R,9S,13aR,14aR,16aS)-14a-(((1-(fluoromethyl)cyclopropyl)sulfonyl)carbamoyl)-2-((4-methoxyisoquinolin-1-yl)oxy)-7,9-dimethyl-5,16-dioxooctadecahydrocyclopropa[e]pyrrolo[1,2-a][1,4]diazacyclopentadecin-6-yl)carbamate] | > 87.4 nM | 4.82 to 103 nM | –
2 | CCn1nc(O[C@@H]2C[C@H]3C(=O)N[C@]4(C(=O)NS(=O)(=O)C5(C)CC5)C[C@H]4/C=C\CC[C@H](C)C[C@@H](C)[C@H](NC(=O)O[C@@H]4C[C@@H]5C[C@@H]5C4)C(=O)N3C2)c2ccccc2c1=O [Compound 5056, (1R,3r,5S)-bicyclo[3.1.0]hexan-3-yl((2R,6S,7R,9S,13aS,14aR,16aS,Z)-2-((3-ethyl-4-oxo-3,4-dihydrophthalazin-1-yl)oxy)-7,9-dimethyl-14a-(((1-methylcyclopropyl)sulfonyl)carbamoyl)-5,16-dioxo-1,2,3,5,6,7,8,9,10,11,13a,14,14a,15,16,16a-hexadecahydrocyclopropa[e]pyrrolo[1,2-a][1,4]diazacyclopentadecin-6-yl)carbamate] | > 87.4 nM | 4.82 to 103 nM | EC50 ([1]; HCV genotype 1a replicon luciferase, read-out: LE_1a (EC50)): 256 nM; EC50 ([2]; HCV genotype 1b replicon luciferase, read-out: LE_1b (EC50)): 61 nM
3 | COc1ccc2c(O[C@@H]3C[C@H]4C(=O)N[C@]5(C(=O)NS(=O)(=O)C6CC6)C[C@H]5/C=C\CC[C@H](C)C[C@@H](C)[C@H](NC(=O)OC(C)(C)C(F)(F)F)C(=O)N4C3)nc(-c3ccc(OC)c(F)c3)cc2c1 [Compound 3055, 1,1,1-trifluoro-2-methylpropan-2-yl((2R,6S,7R,9S,13aS,14aR,16aS,Z)-14a-((cyclopropylsulfonyl)carbamoyl)-2-((3-(3-fluoro-4-methoxyphenyl)-6-methoxyisoquinolin-1-yl)oxy)-7,9-dimethyl-5,16-dioxo-1,2,3,5,6,7,8,9,10,11,13a,14,14a,15,16,16a-hexadecahydrocyclopropa[e]pyrrolo[1,2-a][1,4]diazacyclopentadecin-6-yl)carbamate] | – | – | EC50 [1, 5]: 4.82 to 103 nM; EC50 [2, 6]: < 5.46 nM
4 | C[C@H]1CC/C=C\[C@@H]2C[C@@]2(C(=O)NS(=O)(=O)C2CC2)NC(=O)[C@@H]2C[C@@H](Oc3nccc4c5c(ccc34)OC(F)(F)O5)CN2C(=O)[C@@H](NC(=O)OC(C)(C)C(F)(F)F)[C@H](C)C1 [Compound 5267, 1,1,1-trifluoro-2-methylpropan-2-yl((2R,6S,7R,9S,13aS,14aR,16aS,Z)-14a-((cyclopropylsulfonyl)carbamoyl)-2-((2,2-difluoro-[1,3]dioxolo[4,5-f]isoquinolin-6-yl)oxy)-7,9-dimethyl-5,16-dioxo-1,2,3,5,6,7,8,9,10,11,13a,14,14a,15,16,16a-hexadecahydrocyclopropa[e]pyrrolo[1,2-a][1,4]diazacyclopentadecin-6-yl)carbamate] | 4.82 to 103 nM | 4.82 to 103 nM | –
5 | CCn1nc(O[C@@H]2C[C@H]3C(=O)N[C@]4(C(=O)NS(=O)(=O)C5(C)CC5)C[C@H]4/C=C\CC[C@@H](C)C[C@@H](C)[C@H](NC(=O)OC(C)(C)C)C(=O)N3C2)c2ccccc2c1=O [Compound 5065, tert-butyl ((2R,6S,7R,9R,13aS,14aR,16aS,Z)-2-((3-ethyl-4-oxo-3,4-dihydrophthalazin-1-yl)oxy)-7,9-dimethyl-14a-(((1-methylcyclopropyl)sulfonyl)carbamoyl)-5,16-dioxo-1,2,3,5,6,7,8,9,10,11,13a,14,14a,15,16,16a-hexadecahydrocyclopropa[e]pyrrolo[1,2-a][1,4]diazacyclopentadecin-6-yl)carbamate] | 4.82 to 103 nM | < 5.46 nM | –
6 | CC[C@@H]1C[C@H](C)CC/C=C\[C@@H]2C[C@@]2(C(=O)NS(=O)(=O)C2(C)CC2)NC(=O)[C@@H]2C[C@@H](Oc3nccc4cc(OC)c(Cl)cc34)CN2C(=O)[C@H]1NC(=O)OC(C)(C)C(F)(F)F [Compound 3222, 1,1,1-trifluoro-2-methylpropan-2-yl((2R,6S,7R,9R,13aS,14aR,16aS,Z)-2-((7-chloro-6-methoxyisoquinolin-1-yl)oxy)-7-ethyl-9-methyl-14a-(((1-methylcyclopropyl)sulfonyl)carbamoyl)-5,16-dioxo-1,2,3,5,6,7,8,9,10,11,13a,14,14a,15,16,16a-hexadecahydrocyclopropa[e]pyrrolo[1,2-a][1,4]diazacyclopentadecin-6-yl)carbamate] | 1.01 to 5 nM | 1.01 to 5 nM | –
7 | COc1ccc2c(O[C@@H]3C[C@H]4C(=O)N[C@]5(C(=O)NS(=O)(=O)C6(C)CC6)C[C@H]5/C=C\CC[C@@H](C)C[C@@H](C)[C@H](NC(=O)OC(C)(C)C(F)(F)F)C(=O)N4C3)nc(-c3ccc(OC(C)C)cc3)cc2c1 [Compound 4064] | – | – | EC50 [1, 7]: < 5.46 nM; EC50 [2, 8]: < 5.46 nM
8 | COc1ccc2c(O[C@@H]3C[C@H]4C(=O)N[C@]5(C(=O)NS(=O)(=O)C6(C)CC6)C[C@H]5/C=C\CC[C@H](C)C[C@@H](C)[C@H](NC(=O)O[C@@H]5C[C@@H]6C[C@@H]6C5)C(=O)N4C3)nc(N3CCOCC3)cc2c1 [Compound 3096, (1R,3r,5S)-bicyclo[3.1.0]hexan-3-yl((2R,6S,7R,9S,13aS,14aR,16aS,Z)-2-((6-methoxy-3-morpholinoisoquinolin-1-yl)oxy)-7,9-dimethyl-14a-(((1-methylcyclopropyl)sulfonyl)carbamoyl)-5,16-dioxo-1,2,3,5,6,7,8,9,10,11,13a,14,14a,15,16,16a-hexadecahydrocyclopropa[e]pyrrolo[1,2-a][1,4]diazacyclopentadecin-6-yl)carbamate] | – | – | EC50 [1, 5]: 4.82 to 103 nM; EC50 [2, 6]: < 5.46 nM
9 | COc1ccc2nc(C)c(O[C@@H]3C[C@H]4C(=O)N[C@]5(C(=O)NS(=O)(=O)C6(CF)CC6)C[C@H]5/C=C\CC[C@@H](C)C[C@@H](C)[C@H](NC(=O)OC(C)(C)C(F)(F)F)C(=O)N4C3)nc2c1 [Compound 4108] | – | – | EC50 [1, 7]: < 5.46 nM; EC50 [2, 8]: < 5.46 nM
10 | COc1ccc2c(O[C@@H]3C[C@H]4C(=O)N[C@]5(C(=O)NS(=O)(=O)C6(C)CC6)C[C@H]5/C=C\CC[C@@H](C)C[C@@H](C)[C@H](NC(=O)c5ccncc5F)C(=O)N4C3)ncc(OC)c2c1 [Compound 4142, (2R,6S,7R,9R,13aS,14aR,16aS,Z)-2-(4,6-dimethoxyisoquinolin-1-yloxy)-6-(3-fluoroisonicotinamido)-7,9-dimethyl-N-(1-methylcyclopropylsulfonyl)-5,16-dioxo-1,2,3,5,6,7,8,9,10,11,13a,14,14a,15,16,16a-hexadecahydrocyclopropa[e]pyrrolo[1,2-a][1,4]diazacyclopentadecine-14a-carboxamide] | < 5.46 nM | < 5.46 nM | –
11 | COc1ccc2c(O[C@@H]3C[C@H]4C(=O)N[C@]5(C(=O)NS(=O)(=O)C6(CF)CC6)C[C@H]5/C=C\CC[C@@H](C)C[C@@H](C)[C@H](NC(=O)OC5(C(F)(F)F)CCCOC5)C(=O)N4C3)nc(C(F)(F)F)cc2c1 (stereo partly drawn) [Compound 1173, 3-(trifluoromethyl)tetrahydro-2H-pyran-3-yl((2R,6S,7R,9R,13aS,14aR,16aS,Z)-14a-(((1-(fluoromethyl)cyclopropyl)sulfonyl)carbamoyl)-2-((6-methoxy-3-(trifluoromethyl)isoquinolin-1-yl)oxy)-7,9-dimethyl-5,16-dioxo-1,2,3,5,6,7,8,9,10,11,13a,14,14a,15,16,16a-hexadecahydrocyclopropa[e]pyrrolo[1,2-a][1,4]diazacyclopentadecin-6-yl)carbamate] | – | – | EC50 [1, 5]: < 5.46 nM; EC50 [2, 6]: < 5.46 nM
